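Protocol summary: plate cells (96-well), add compound at 5 concentrations, incubate 48 h, interpolate endpoints linearly. The concentration for 50% growth inhibition is given as GI50.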 Calls of active or inactive are those of the source. Cut-off read from the data, not from the text of the source: active = GI50 up to about 1.1 µM and inactive = higher.
Legend:
Test in all cases: DTP human tumour cell line panel, 48 h
M19-MEL = test system: M19-MEL
DMS-273 = test system: DMS-273
DLD-1 = test system: DLD-1
DMS-114 = test system: DMS-114
SNB-78 = test system: SNB-78
XF498 = test system: XF498
BT-549 = test system: BT-549
RXF 631 = test system: RXF 631
HOP-18 = test system: HOP-18

Row | Structure (SMILES) | GI50 (M19-MEL) | GI50 (DMS-273) | GI50 (DLD-1) | GI50 (DMS-114) | GI50 (SNB-78) | GI50 (XF498) | GI50 (BT-549) | GI50 (RXF 631) | GI50 (HOP-18)
1 | Cc1c2n(c3ccccc13)CC1C2N(C)OC1(C)C (stereo unspecified) | > 100 µM (inactive) | > 100 µM (inactive) | > 100 µM (inactive) | > 100 µM (inactive) | > 100 µM (inactive) | > 100 µM (inactive) | – | – | –
2 | CC[C@@]1(O)C(=O)OCc2c1cc1n(c2=O)Cc2c-1nc1ccc(O)cc1c2[Si](C)(C)C(C)(C)C [AR-67] | – | – | – | – | – | – | < 0.0157 µM (active) | – | –
3 | COc1cc(C(N)=O)c(OC)c(OC)c1OC | > 100 µM (inactive) | > 100 µM (inactive) | > 100 µM (inactive) | > 100 µM (inactive) | > 100 µM (inactive) | – | – | > 100 µM (inactive) | –
4 | CSc1nc2c(c(=O)[nH]1)N=C(c1ccc(Cl)cc1)CC(c1ccccc1)N2 (stereo unspecified) | – | – | – | – | – | – | 19.7 µM (inactive) | – | –
5 | Cc1nc2cc3nc4ccccc4c(O)c3cc2s1 | > 100 µM (inactive) | > 100 µM (inactive) | – | > 100 µM (inactive) | > 100 µM (inactive) | > 100 µM (inactive) | – | – | 16.7 µM (inactive)
6 | COC(=O)C1(Cc2ccccc2)Cc2ccccc2C1O (stereo unspecified) | – | – | – | – | – | – | > 100 µM (inactive) | – | –
7 | CN(C)CC1CCCC/C1=N/O (stereo unspecified) | > 100 µM (inactive) | > 100 µM (inactive) | > 100 µM (inactive) | > 100 µM (inactive) | > 100 µM (inactive) | – | – | > 100 µM (inactive) | > 100 µM (inactive)
8 | COc1ccc(Nc2nnc(-c3nsc4ccccc34)s2)cc1 | > 100 µM (inactive) | 47.1 µM (inactive) | – | 59.4 µM (inactive) | > 100 µM (inactive) | – | – | – | 0.0149 µM (active)
9 | O=[N+]([O-])c1ccc(NSc2ccccc2)cc1 | – | 15.4 µM (inactive) | 24.8 µM (inactive) | 21 µM (inactive) | 38.3 µM (inactive) | 31.1 µM (inactive) | – | – | > 100 µM (inactive)
10 | O=C(O)c1c[nH]c2c(ccc3ncccc32)c1=O | > 100 µM (inactive) | > 100 µM (inactive) | > 100 µM (inactive) | > 100 µM (inactive) | > 100 µM (inactive) | – | – | – | > 100 µM (inactive)
11 | Cn1cccc1-c1ccc(-c2ccc(CO)[se]2)[se]1 | – | – | – | – | – | – | 20.2 µM (inactive) | – | –
12 | N#Cc1nnc2ccccc2c1N | – | – | – | – | – | – | > 100 µM (inactive) | – | –
13 | CN1CCn2c(Br)ccc2C1=O | > 100 µM (inactive) | > 100 µM (inactive) | > 10 µM (inactive) | – | > 100 µM (inactive) | > 100 µM (inactive) | – | – | –
14 | CC(=O)OCC1OC(OC2C(CSC3OC(COC(C)=O)C(OC(C)=O)C(OC(C)=O)C3OC(C)=O)OC(OC(C)=O)C(OC(C)=O)C2OC(C)=O)C(OC(C)=O)C(OC(C)=O)C1OC(C)=O (stereo unspecified) | > 100 µM (inactive) | > 100 µM (inactive) | > 100 µM (inactive) | > 100 µM (inactive) | > 100 µM (inactive) | > 100 µM (inactive) | – | – | –
15 | Cc1ccc(S(=O)(=O)N/N=C2\C3CC4CC(C3)C2C4)cc1 (stereo unspecified) | – | – | – | – | – | – | > 100 µM (inactive) | – | –
16 | NC(=S)N/N=C1\C(=O)N(c2cccc([N+](=O)[O-])c2)C(=O)C1C(=O)Nc1cccc([N+](=O)[O-])c1 (stereo unspecified) | > 100 µM (inactive) | > 100 µM (inactive) | > 100 µM (inactive) | > 100 µM (inactive) | > 100 µM (inactive) | – | – | – | 65.3 µM (inactive)
17 | CC[C@]12C=CCN3CCC4(c5cc(/N=N/c6ccccc6)c(OC)cc5N(C)[C@H]4[C@@](O)(C(=O)OC)[C@@H]1OC(C)=O)[C@@H]32 (stereo partly specified) | – | – | – | – | – | – | 17.1 µM (inactive) | – | –
18 | CC(C)(C)OC(=O)NNCC(O)COc1ccccc1 (stereo unspecified) | – | – | – | – | – | – | > 100 µM (inactive) | – | –
19 | CC(C)N(C(=O)C12C3(C(=O)C(C)(C)C)C4C5(C#N)C3C1(C(=O)C(C)(C)C)C5C42C(=O)C(C)(C)C)C(C)C (stereo unspecified) | – | – | – | – | – | – | > 100 µM (inactive) | – | –
20 | COC(=O)C(CC(=O)Nc1ccc(C)cc1)C(=O)C(=O)Nc1c(C(C)C)cccc1C(C)C (stereo unspecified) | > 100 µM (inactive) | – | > 100 µM (inactive) | > 100 µM (inactive) | > 100 µM (inactive) | > 100 µM (inactive) | – | > 100 µM (inactive) | –
21 | CCCC(=O)OCC(COC(=O)CCC)OC(=O)CCC [TRIBUTYRIN] | – | – | – | – | – | – | 97.3 µM (inactive) | – | –
22 | O=c1c2cnccc2cc2c3ccccc3ccn12 | – | – | – | – | – | – | 65.6 µM (inactive) | – | –
23 | O=C(Cc1nc2ccccc2c(=O)n1-c1ccccc1Cl)c1ccncc1 | > 100 µM (inactive) | > 100 µM (inactive) | > 100 µM (inactive) | > 100 µM (inactive) | > 100 µM (inactive) | – | – | > 100 µM (inactive) | > 100 µM (inactive)
24 | COc1cc2c(cc1C)NC(=O)/C2=C/c1c(Cl)n(-c2ccccc2)c2ccccc12 | – | – | – | – | – | – | 17.3 µM (inactive) | – | –
25 | O=C(CNc1c(Cl)cccc1Cl)NC1C=Cc2ccc(S(=O)(=O)Nc3c(Cl)cccc3Cl)cc2C1=O (stereo unspecified) | – | – | – | – | – | – | 60.7 µM (inactive) | – | –
26 | CC(C)=CCOc1cc(NC(=S)c2ccsc2C)ccc1Cl | – | – | – | – | – | – | 23.6 µM (inactive) | – | –
